Results as given in ChEMBL document CHEMBL4622979, “Non-rigid Diarylmethyl Analogs of Baloxavir as Cap-Dependent Endonuclease Inhibitors of Influenza Viruses” (J Med Chem, 2020).

Tests used:
[1] = MRTlast in CD1 mouse plasma assessed as (12aR)-12-(Diphenylmethyl)-7-hydroxy-3,4,12,12a-tetrahydro-1H-[1,4]oxazino[3,4-c]pyrido[2,1-f ][1,2,4]triazine-6,8-dione level at 15 mg/kg, po administered as single dose measured up to 24 hrs by LC-MS/MS analysis; type: ADME, organism-based; conditions: in vivo
[2] = Ratio of AUClast in CD1 mouse kidney to plasma assessed as (12aR)-12-(Diphenylmethyl)-7-hydroxy-3,4,12,12a-tetrahydro-1H-[1,4]oxazino[3,4-c]pyrido[2,1-f ][1,2,4]triazine-6,8-dione level at 15 mg/kg, po administered as single dose measured up to 24 hrs by LC-MS/MS analysis; type: ADME, organism-based; conditions: other tissue
[3] = Half life in CD1 mouse kidney assessed as (12aR)-12-(Diphenylmethyl)-7-hydroxy-3,4,12,12a-tetrahydro-1H-[1,4]oxazino[3,4-c]pyrido[2,1-f ][1,2,4]triazine-6,8-dione level at 15 mg/kg, po administered as single dose measured up to 24 hrs by LC-MS/MS analysis; type: ADME, organism-based; conditions: in vivo
[4] = Ratio of AUClast in CD1 mouse small intestine to plasma assessed as (12aR)-12-(Diphenylmethyl)-7-hydroxy-3,4,12,12a-tetrahydro-1H-[1,4]oxazino[3,4-c]pyrido[2,1-f ][1,2,4]triazine-6,8-dione level at 15 mg/kg, po administered as single dose measured up to 24 hrs by LC-MS/MS analysis; type: ADME, organism-based; conditions: other tissue
[5] = Ratio of free drug level in CD1 mouse blood assessed as (12aR)-12-(Diphenylmethyl)-7-hydroxy-3,4,12,12a-tetrahydro-1H-[1,4]oxazino[3,4-c]pyrido[2,1-f ][1,2,4]triazine-6,8-dione level at 50 mg/kg, po to EC50 for antiviral activity against Influenza A/California/04/2009 (H1N1)pdm09 infected in MDCK cells; type: ADME, organism-based; conditions: in vivo
[6] = AUCinfinity in CD1 mouse trachea assessed as (12aR)-12-(Diphenylmethyl)-7-hydroxy-3,4,12,12a-tetrahydro-1H-[1,4]oxazino[3,4-c]pyrido[2,1-f ][1,2,4]triazine-6,8-dione level at 15 mg/kg, po administered as single dose measured up to 24 hrs by LC-MS/MS analysis; type: ADME, organism-based; set-up: dose 15 mg/kg, route oral, time infinity; conditions: in vivo
[7] = Ratio of AUClast in CD1 mouse lung to plasma assessed as (12aR)-12-(Diphenylmethyl)-7-hydroxy-3,4,12,12a-tetrahydro-1H-[1,4]oxazino[3,4-c]pyrido[2,1-f ][1,2,4]triazine-6,8-dione level at 15 mg/kg, po administered as single dose by LC-MS/MS analysis; type: ADME, organism-based; conditions: other tissue
[8] = Half life in CD1 mouse spleen assessed as (12aR)-12-(Diphenylmethyl)-7-hydroxy-3,4,12,12a-tetrahydro-1H-[1,4]oxazino[3,4-c]pyrido[2,1-f ][1,2,4]triazine-6,8-dione level at 15 mg/kg, po administered as single dose measured up to 24 hrs by LC-MS/MS analysis; type: ADME, organism-based; conditions: in vivo
[9] = Elimination rate constant in CD1 mouse liver assessed as (12aR)-12-(Diphenylmethyl)-7-hydroxy-3,4,12,12a-tetrahydro-1H-[1,4]oxazino[3,4-c]pyrido[2,1-f ][1,2,4]triazine-6,8-dione level at 15 mg/kg, po administered as single dose measured up to 24 hrs by LC-MS/MS analysis; type: ADME, organism-based; conditions: in vivo
[10] = Tmax in CD1 mouse brain assessed as (12aR)-12-(Diphenylmethyl)-7-hydroxy-3,4,12,12a-tetrahydro-1H-[1,4]oxazino[3,4-c]pyrido[2,1-f ][1,2,4]triazine-6,8-dione level at 15 mg/kg, po administered as single dose measured up to 24 hrs by LC-MS/MS analysis; type: ADME, organism-based; conditions: in vivo
[11] = MRTlast in CD1 mouse lung assessed as (12aR)-12-(Diphenylmethyl)-7-hydroxy-3,4,12,12a-tetrahydro-1H-[1,4]oxazino[3,4-c]pyrido[2,1-f ][1,2,4]triazine-6,8-dione level at 15 mg/kg, po administered as single dose measured up to 24 hrs by LC-MS/MS analysis; type: ADME, organism-based; conditions: in vivo
[12] = Half life in CD1 mouse heart assessed as (12aR)-12-(Diphenylmethyl)-7-hydroxy-3,4,12,12a-tetrahydro-1H-[1,4]oxazino[3,4-c]pyrido[2,1-f ][1,2,4]triazine-6,8-dione level at 15 mg/kg, po administered as single dose measured up to 24 hrs by LC-MS/MS analysis; type: ADME, organism-based; conditions: in vivo
[13] = Cmax in CD1 mouse spleen assessed as baloxavir acid level at 15 mg/kg, po administered as single dose measured up to 24 hrs by LC-MS/MS analysis; type: ADME, organism-based; set-up: dose 15 mg/kg, route oral; conditions: in vivo
[14] = MRTlast in CD1 mouse muscle assessed as baloxavir acid level at 15 mg/kg, po administered as single dose measured up to 24 hrs by LC-MS/MS analysis; type: ADME, organism-based, Muscle tissue; conditions: in vivo
[15] = Ratio of AUClast in CD1 mouse spleen to plasma assessed as baloxavir acid level at 15 mg/kg, po administered as single dose measured up to 24 hrs by LC-MS/MS analysis; type: ADME, organism-based; conditions: other tissue
[16] = AUCinfinity in CD1 mouse liver assessed as baloxavir acid level at 15 mg/kg, po administered as single dose measured up to 24 hrs by LC-MS/MS analysis; type: ADME, organism-based; set-up: dose 15 mg/kg, route oral, time infinity; conditions: in vivo
[17] = Tmax in CD1 mouse small intestine assessed as baloxavir acid level at 15 mg/kg, po administered as single dose measured up to 24 hrs by LC-MS/MS analysis; type: ADME, organism-based; conditions: in vivo
[18] = AUClast in CD1 mouse spleen assessed as baloxavir acid level at 15 mg/kg, po administered as single dose measured up to 24 hrs by LC-MS/MS analysis; type: ADME, organism-based; conditions: in vivo
[19] = Ratio of Cmax in CD1 mouse lung to plasma assessed as baloxavir acid level at 15 mg/kg, po administered as single dose by LC-MS/MS analysis; type: ADME, organism-based; conditions: other tissue

For `COC(=O)OCOc1c2n(ccc1=O)N(C(c1ccccc1)c1ccccc1)[C@@H]1COCCN1C2=O`, the MRTlast [1] was 1.67 h, the “Ratio AUC” value [2] was 5.5 and the t1/2 [3] was 2.57 h. For the same compound, the “Ratio AUC” value [4] was 13.3, the Ratio [5] was 44 and the AUC [6] was 10875 ng·h/g. The “Ratio AUC” value [7] was 3, the t1/2 [8] was 1.77 h and the Kel [9] was 0.3 h⁻¹. For the same compound, the Tmax [10] was 0.5 h, the MRTlast [11] was 1.7 h and the t1/2 [12] was 1.69 h.

In the case of `COC(=O)OCOc1c2n(ccc1=O)N([C@@H]1c3ccccc3SCc3c1ccc(F)c3F)[C@@H]1COCCN1C2=O` [BALOXAVIR MARBOXIL], the Cmax [13] is reported as 388 ng/g, the MRTlast [14] is reported as 3.35 h and the “Ratio AUC” value [15] is reported as 7.99. The AUC [16] was 85348 ng·h/g, the Tmax [17] was 0.5 h and the AUClast [18] was 3611 ng·h/g. The Ratio [19] was 10.8.
